From patent publication US20250255847A1, “[…]s: Novel Drugs for Triple Negative Breast Cancer” (SIMMARON RSEARCH INC, priority 2024, published 2025)

Tests used:
TNBC cells = conditions: cited from earlier work
tumor burden = conditions: in vivo; cited from earlier work
purified STAT1 protein = target: T1, purified STAT1 protein (Homo sapiens, UniProt P42224); test: Protein thermal shift (PTS) assay of STAT1; assay type: binding; conditions: 10 and 20 μM
T1 sequence (P42224 1-750): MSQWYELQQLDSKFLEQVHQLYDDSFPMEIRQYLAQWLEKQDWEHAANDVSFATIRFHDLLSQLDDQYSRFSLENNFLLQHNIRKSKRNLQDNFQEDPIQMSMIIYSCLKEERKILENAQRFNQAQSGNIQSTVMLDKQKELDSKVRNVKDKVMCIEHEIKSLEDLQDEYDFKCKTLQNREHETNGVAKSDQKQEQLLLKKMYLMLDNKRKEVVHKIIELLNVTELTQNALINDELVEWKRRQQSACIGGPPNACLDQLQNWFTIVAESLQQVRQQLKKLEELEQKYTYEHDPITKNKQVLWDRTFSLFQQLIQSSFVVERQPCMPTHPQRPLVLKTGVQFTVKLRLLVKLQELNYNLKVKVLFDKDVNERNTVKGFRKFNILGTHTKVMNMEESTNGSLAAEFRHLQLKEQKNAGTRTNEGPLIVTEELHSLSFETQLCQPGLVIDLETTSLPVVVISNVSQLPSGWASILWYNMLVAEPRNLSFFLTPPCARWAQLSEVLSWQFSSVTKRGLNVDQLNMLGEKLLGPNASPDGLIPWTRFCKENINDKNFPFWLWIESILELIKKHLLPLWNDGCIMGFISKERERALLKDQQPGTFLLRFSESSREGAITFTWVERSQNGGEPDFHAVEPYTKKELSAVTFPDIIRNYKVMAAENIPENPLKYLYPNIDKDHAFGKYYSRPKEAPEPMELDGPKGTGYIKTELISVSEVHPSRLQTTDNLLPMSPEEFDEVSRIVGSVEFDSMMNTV
Protocol: (§1) FIG. 5 illustrates an embodiment of the present invention and illustrates evaluations of SIM-1 and SIM-2 as STAT3 inhibitors. (A) Protein thermal shift assay was performed to assess the melting of purified recombinant STAT3 (blue; 0.5 μg protein) (Tm=melting temperature=68.88° C.). The representative melting curves were derived after adding SIM-1 (red; 4 nM), SIM-2 (purple; 8 nM), and positive control stattic (grey; 20 nM) to the STAT3 protein. The differences of melting temperature (ΔTm) between pure protein and protein+ligands are −4.54° C., −4.16° C., and 0.39° C. for SIM-1, SIM-2, and stattic (ΔTm^cut-off>2° C.). (B) Phospho protein array analysis was conducted in cell lysates of MDA-MB-468 cells treated with DMSO control (top left), 25 ng/mL EGF (top right), EGF+10 nM SIM-1 (bottom left), and EGF+SIM-2 (bottom right) for 24 hrs. Each colored arrowhead represents a specific phosphoprotein, and the description was added in the bottom of array images. S=serine and Y=tyrosine. Relative levels of (C) Tyrosine 705 (Y705) phosphorylated STAT3, (D) Serine 727 (S727) phosphorylated STAT3, (E) Tyrosine 693 (Y693) phosphorylated STAT4, (F) Tyrosine 694 ([…]) phosphorylated STAT5A had been derived after normalizing the spot densities (n=5) with respective β-actin spots. Results are mean±SD of five different spot analyses. One-way ANOVA was adopted to test the significance of mean between groups at **p<0.01, and ****p<0.0001. Ns=no significance. Thermal shift assays of increasing doses of (G) SIM-1, (H) SIM-2, and (I) stattic with purified STAT1 protein (0.5 μg protein). The respective ΔTm values were given with the plot after matching with the color code. Similarly, full-length STAT5b protein melting was assessed with (J) SIM-1, (K) SIM-2, and (L) stattic. Results are confirmed after three different experiments.
(§2) To confirm the result, PTS assay of STAT1 with SIM-1 (FIG. 5G), SIM-2 (FIG. 5H), and stattic (FIG. 5I) was performed. […] Similar results were observed while performing the binding assay with STAT5b.

STAT3 [1] = target: T2, STAT3 (Homo sapiens, UniProt P40763); conditions: read-out: IC50 as STAT3 inhibitor; cited from earlier work
Target sequence in this assay (P40763 whole entry, species assumed): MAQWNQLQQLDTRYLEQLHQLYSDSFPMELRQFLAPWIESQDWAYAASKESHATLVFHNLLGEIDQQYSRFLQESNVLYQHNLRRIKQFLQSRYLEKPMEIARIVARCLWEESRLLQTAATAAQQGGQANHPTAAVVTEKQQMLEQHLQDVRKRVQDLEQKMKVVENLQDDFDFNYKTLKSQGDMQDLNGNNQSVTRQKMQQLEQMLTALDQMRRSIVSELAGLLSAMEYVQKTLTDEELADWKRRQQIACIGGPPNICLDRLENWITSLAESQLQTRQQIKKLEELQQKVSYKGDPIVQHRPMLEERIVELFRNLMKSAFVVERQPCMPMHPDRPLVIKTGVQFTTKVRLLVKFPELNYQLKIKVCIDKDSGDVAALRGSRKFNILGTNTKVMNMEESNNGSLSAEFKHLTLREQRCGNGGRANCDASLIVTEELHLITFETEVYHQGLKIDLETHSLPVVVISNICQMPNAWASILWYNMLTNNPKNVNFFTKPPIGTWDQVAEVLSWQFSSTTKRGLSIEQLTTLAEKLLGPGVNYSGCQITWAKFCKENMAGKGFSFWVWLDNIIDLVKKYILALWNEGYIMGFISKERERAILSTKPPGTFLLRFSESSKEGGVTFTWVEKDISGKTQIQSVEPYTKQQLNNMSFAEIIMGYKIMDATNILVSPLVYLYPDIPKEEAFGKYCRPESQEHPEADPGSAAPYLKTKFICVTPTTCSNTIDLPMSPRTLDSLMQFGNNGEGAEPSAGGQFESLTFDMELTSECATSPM

STAT3 [2] = target: T2, STAT3; test: Protein thermal shift assay with recombinant STAT3; assay type: binding; parameters: purchased Active motif 81095
Protocol: as §1
Target sequence in this assay (P40763 whole entry): as the sequence (P40763 whole entry, species assumed) above
FIG. 6 illustrates an embodiment of the present invention and illustrates dose-dependent curves of maximum fluorescence for SIM1 and SIM2. Protein thermal shift assay of recombinant STAT3 was performed with increasing doses of (A) SIM-1, (B) SIM-2, and (C) positive control “Stattic”. The maximum fluorescence for each dose was derived and then plotted in GraphPad Prism software with respective doses. The resultant non-liner hyperbolic curves provide half-maximal binding (EC50) for all three compounds.
This example provides a representative study of the present disclosure to test if SIM1 and SIM2 served as ligands of STAT3. Therefore, the present invention adopted a protein thermal shift assay in which […] of recombinant human STAT3 protein (active motif) was incubated with increasing doses of SIM1 and SIM2 followed by the execution of melting analysis starting from 25 to 95° C. as described elsewhere.

[3] = target: T3, full-length STAT5b protein (Homo sapiens, UniProt P51692); test: Protein thermal shift binding assay with STAT5b; conditions: increasing doses
T3 construct: full-length STAT5b protein melting was assessed with (J) SIM-1, (K) SIM-2, and (L) stattic
T3 sequence (P51692 1-787): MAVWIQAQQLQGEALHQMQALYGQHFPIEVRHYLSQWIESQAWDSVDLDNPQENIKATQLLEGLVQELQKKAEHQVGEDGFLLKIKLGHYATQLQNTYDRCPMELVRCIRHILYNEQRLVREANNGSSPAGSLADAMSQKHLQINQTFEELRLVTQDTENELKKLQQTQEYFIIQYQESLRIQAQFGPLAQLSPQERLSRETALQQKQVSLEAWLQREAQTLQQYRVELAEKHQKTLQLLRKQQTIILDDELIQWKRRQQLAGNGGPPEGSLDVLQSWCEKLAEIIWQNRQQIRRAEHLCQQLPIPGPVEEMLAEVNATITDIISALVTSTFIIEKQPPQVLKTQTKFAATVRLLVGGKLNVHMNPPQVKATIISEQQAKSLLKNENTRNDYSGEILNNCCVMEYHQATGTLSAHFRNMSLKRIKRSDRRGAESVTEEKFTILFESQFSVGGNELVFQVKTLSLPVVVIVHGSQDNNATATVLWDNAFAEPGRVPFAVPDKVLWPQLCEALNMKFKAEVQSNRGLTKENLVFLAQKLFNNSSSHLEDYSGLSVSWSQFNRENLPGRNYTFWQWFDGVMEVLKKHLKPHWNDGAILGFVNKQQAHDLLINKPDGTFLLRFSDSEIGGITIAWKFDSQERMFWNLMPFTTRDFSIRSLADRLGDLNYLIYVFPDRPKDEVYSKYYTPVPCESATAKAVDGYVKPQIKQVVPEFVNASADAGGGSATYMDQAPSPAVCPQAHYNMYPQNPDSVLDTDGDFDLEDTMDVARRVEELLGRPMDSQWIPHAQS
Protocol: as §1, §2

Structure (SMILES) | CT50 (TNBC cells) | dose effectively reducing tumor burden (tumor burden) | doses causing apoptosis of TNBC tumors (TNBC cells) [µM] | shift in the melting curve of STAT1 (purified STAT1 protein) | IC50 (STAT3 [1]) [µM] | ΔTm of STAT3 (STAT3 [2]; 20 nM ligand, cut-off 2° C.) [°C] | EC50 (STAT3 [2]; non-linear hyperbolic binding curve, read-out: EC50 (half-maximal binding, maximum fluorescence versus dose)) [µM] | shift in the melting curve of STAT5b [3]
NC(=O)CC[C@H](NC(=O)[C@@H]1CC[C@@H]2CCN(C(=O)CCCCCC#Cc3cccc4c3CN(C3CCC(=O)NC3=O)C4=O)C[C@H](NC(=O)c3cc4cc(C(F)(F)P(=O)(O)O)ccc4[nH]3)C(=O)N21)C(=O)NC(c1ccccc1)c1ccccc1 (stereo partly drawn) [SD36] | micromolar range | 25-50 mg/Kg body weight (bwt) |  |  |  |  |  | 
O=[N+]([O-])c1ccc2c(c1)S(=O)(=O)C=C2 [stattic, reference compound] | micromolar range |  | 10 to 20 | did not produce any shift | 5 | 0.39 | ~2 | unable to produce any significant shift
